In patent US20230373930A1, “AMINOIMIDAZOLE FPR2 AGONISTS” (BRISTOL-MYERS SQUIBB COMPANY, priority 2020, published 2023) one finds EC50 data, which are given here for 21 compounds.

In one test the target is T1, human FPR1 (Homo sapiens, UniProt P21462).
T1 sequence (P21462 1-350): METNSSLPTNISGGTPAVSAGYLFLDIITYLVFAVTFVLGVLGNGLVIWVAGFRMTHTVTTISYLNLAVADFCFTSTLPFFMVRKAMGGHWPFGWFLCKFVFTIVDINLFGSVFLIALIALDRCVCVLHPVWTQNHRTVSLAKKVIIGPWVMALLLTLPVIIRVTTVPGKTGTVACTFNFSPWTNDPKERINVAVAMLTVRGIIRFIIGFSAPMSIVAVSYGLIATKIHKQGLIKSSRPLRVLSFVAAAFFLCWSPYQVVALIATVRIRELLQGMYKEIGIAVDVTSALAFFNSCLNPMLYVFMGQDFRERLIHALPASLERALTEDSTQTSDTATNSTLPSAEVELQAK
In words: FPR1 cyclic adenosine monophosphate (cAMP) assay. Conditions: CHO cells overexpressing human FPR1; forskolin 10 μM; inhibition of cAMP production; HTRF; read-out: hFPR1 cAMP2 EC50. In kind it is cell-based. How it is done: (§1) FPR2 and FPR1 Cyclic Adenosine Monophosphate (cAMP) Assays. A mixture of forskolin (5 μM final for FPR2 or 10 μM final for FPR1) and IBMX (200 μM final) were added to 384-well Proxiplates (Perkin-Elmer) pre-dotted with test compounds in DMSO (1% final) at final concentrations in the range of 0.020 nM to 100 μM. Chinese Hamster Ovary cells (CHO) overexpressing human FPR1 or human FPR2 receptors were cultured in F-12 (Ham's) medium supplemented with 10% qualified FBS, 250 μg/ml zeocin and 300 μg/ml hygromycin (Life Technologies). Reactions were initiated by adding 2,000 human FPR2 cells per well or 4,000 human FPR1 cells per well in Dulbecco's PBS (with calcium and magnesium) (Life Technologies) supplemented with 0.1% BSA (Perkin-Elmer). The reaction mixtures were incubated for 30 min at room temperature. The level of intracellular cAMP was determined using the HTRF HiRange cAMP assay reagent kit (Cisbio) according to manufacturer's instruction. Solutions of cryptate conjugated anti-cAMP and d2 flurorophore-labelled cAMP were made in a supplied lysis buffer separately. Upon completion of the reaction, the cells were lysed with equal volume of the d2-cAMP solution and anti-cAMP solution. After a 1-h room temperature incubation, time-resolved fluorescence intensity was measured using the Envision (Perkin-Elmer) at 400 nm excitation and dual emission at 590 nm and 665 nm. A calibration curve was constructed with an external cAMP standard at concentrations ranging from 1 μM to 0.1 μM by plotting the fluorescent intensity ratio from 665 nm emission to the intensity from the 590 nm emission against cAMP concentrations. The potency and activity of a compound to inhibit cAMP production was then determined by fitting to a 4-parametric logistic equation from a plot of cAMP level versus compound concentrations.
(Changes in cAMP serve as a functional read-out for many G protein-coupled receptors.)

The target of another test is T2, human FPR2 (Homo sapiens, UniProt P25090).
T2 sequence (P25090 1-351): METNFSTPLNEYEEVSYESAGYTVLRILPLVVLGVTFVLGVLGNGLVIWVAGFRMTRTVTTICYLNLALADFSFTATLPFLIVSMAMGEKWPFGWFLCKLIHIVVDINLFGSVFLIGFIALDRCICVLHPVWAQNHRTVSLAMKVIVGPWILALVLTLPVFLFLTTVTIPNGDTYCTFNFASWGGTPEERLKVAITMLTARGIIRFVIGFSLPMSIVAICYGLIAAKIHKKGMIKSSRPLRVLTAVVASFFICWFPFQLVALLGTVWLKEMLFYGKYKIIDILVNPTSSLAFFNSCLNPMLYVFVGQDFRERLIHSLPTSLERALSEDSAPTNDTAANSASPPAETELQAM
In words: FPR2 cyclic adenosine monophosphate (cAMP) assay. The following applies: CHO cells overexpressing human FPR2; forskolin 5 μM; inhibition of cAMP production; HTRF; read-out: hFPR2 cAMP2 EC50. The format is cell-based. How it is done:
as §1

By EC50 is commonly meant the concentration giving half of the maximal effect.

Molecules are shown by their SMILES. A value given as a limit tells only on which side of the number the result lay.

For `COc1ccc(-n2cc(C(=O)N3CCNCC3)nc2NC(=O)c2ccc(OC(F)F)cc2)cc1` [Example 45, 4-(Difluoromethoxy)-N-[1-(4-methoxyphenyl)-4-(piperazine-1-carbonyl)-1H-imidazol-2-yl]benzamide], the results for the EC50 on human FPR1 and at human FPR2 were 710 nM and 14 nM, respectively.

As to `COc1ccc(-n2cc(C(=O)NCCCO)nc2NC(=O)c2ccc(OC(F)F)cc2)cc1` [Example 46, 2-[4-(Difluoromethoxy)benzamido]-N-(3-hydroxypropyl)-1-(4-methoxyphenyl)-1H-imidazole-4-carboxamide], the EC50 at human FPR1 is 210 nM; at human FPR2, 27 nM.

Regarding `COc1cc(F)c(-n2cc(C(=O)NCc3cccnc3)nc2NC(=O)c2ccc(OC(F)F)cc2)c(F)c1` [Example 47, 1-(2,6-Difluoro-4-methoxyphenyl)-2-[4-(difluoromethoxy)benzamido]-N-[(pyridin-3-yl)methyl]-1H-imidazole-4-carboxamide], the EC50 on human FPR1 was determined as 110 nM; at human FPR2 it was 35 nM.

On to `COc1cc(F)c(-n2cc(C(=O)NCc3ccncc3)nc2NC(=O)c2ccc(OC(F)F)cc2)c(F)c1` [Example 48, 1-(2,6-Difluoro-4-methoxyphenyl)-2-[4-(difluoromethoxy)benzamido]-N-[(pyridin-4-yl)methyl]-1H-imidazole-4-carboxamide], for which the EC50 at human FPR1 was determined as 600 nM; on human FPR2 it was 110 nM.

As to `COc1cc(F)c(-n2cc(C(=O)NC3CCC(O)CC3)nc2NC(=O)c2ccc(OC(F)F)cc2)c(F)c1` (stereo not drawn) [Example 49, 1-(2,6-Difluoro-4-methoxyphenyl)-2-[4-(difluoromethoxy)benzamido]-N-(4-hydroxycyclohexyl)-1H-imidazole-4-carboxamide], the half-maximal effective concentration (EC50) is 750 nM at human FPR1 and 90 nM at human FPR2.

In the case of `COc1cc(F)c(-n2cc(C(=O)N3CCC[C@H]3CO)nc2NC(=O)c2ccc(OC(F)F)cc2)c(F)c1` [Example 50, N-[1-(2,6-Difluoro-4-methoxyphenyl)-4-[(2S)-2-(hydroxymethyl)pyrrolidine-1-carbonyl]-1H-imidazol-2-yl]-4-(difluoromethoxy)benzamide], the concentration giving a half-maximal response (EC50) at human FPR1 was > 10000 nM; at human FPR2 it was 77 nM.

Regarding `COc1cc(F)c(-n2cc(C(=O)N3CCCC(O)C3)nc2NC(=O)c2ccc(OC(F)F)cc2)c(F)c1` (stereo not drawn) [Example 51, N-[1-(2,6-Difluoro-4-methoxyphenyl)-4-(3-hydroxypiperidine-1-carbonyl)-1H-imidazol-2-yl]-4-(difluoromethoxy)benzamide], the EC50 on human FPR1 was 2900 nM; on human FPR2 it was 83 nM.

`COc1cc(F)c(-n2cc(C(=O)N3CCC(O)CC3)nc2NC(=O)c2ccc(OC(F)F)cc2)c(F)c1` [Example 52, N-[1-(2,6-Difluoro-4-methoxyphenyl)-4-(4-hydroxypiperidine-1-carbonyl)-1H-imidazol-2-yl]-4-(difluoromethoxy)benzamide]: the results for the EC50 at human FPR1 and at human FPR2 were > 10000 nM and 63 nM, respectively.

Take `COc1cc(F)c(-n2cc(C(=O)NCCO)nc2NC(=O)c2ccc(OC(F)F)cc2)c(F)c1` [Example 53, 1-(2,6-Difluoro-4-methoxyphenyl)-2-[4-(difluoromethoxy)benzamido]-N-(2-hydroxyethyl)-1H-imidazole-4-carboxamide]: the EC50 at human FPR1 was determined as 4100 nM; on human FPR2 it was 130 nM.

`COc1cc(F)c(-n2cc(C(=O)N3CCOCC3)nc2NC(=O)c2ccc(OC(F)F)cc2)c(F)c1` [Example 54, N-[1-(2,6-Difluoro-4-methoxyphenyl)-4-(morpholine-4-carbonyl)-1H-imidazol-2-yl]-4-(difluoromethoxy)benzamide]: the half-maximal effective concentration (EC50) is > 10000 nM at human FPR1 and 320 nM on human FPR2.

For the compound `COc1cc(F)c(-n2cc(C(=O)N3CCN(C)CC3)nc2NC(=O)c2ccc(OC(F)F)cc2)c(F)c1` [Example 55, N-[1-(2,6-Difluoro-4-methoxyphenyl)-4-(4-methylpiperazine-1-carbonyl)-1H-imidazol-2-yl]-4-(difluoromethoxy)benzamide], the EC50 at human FPR1 was > 10000 nM; on human FPR2, 280 nM.

For the compound `COc1cc(F)c(-n2cc(C(=O)NCc3cnc(C)cn3)nc2NC(=O)c2ccc(OC(F)F)cc2)c(F)c1` [Example 56, 1-(2,6-Difluoro-4-methoxyphenyl)-2-[4-(difluoromethoxy)benzamido]-N-[(5-methylpyrazin-2-yl)methyl]-1H-imidazole-4-carboxmaide], the EC50 on human FPR1 was found to be 110 nM; at human FPR2, 89 nM.

For the compound `COc1cc(F)c(-n2cc(C(=O)N3CC[C@H](O)C3)nc2NC(=O)c2ccc(OC(F)F)cc2)c(F)c1` [Example 57, N-[1-(2,6-Difluoro-4-methoxyphenyl)-4-[(3S)-3-hydroxypyrrolidine-1-carbonyl]-1H-imidazol-2-yl]-4-(difluoromethoxy)benzamide], the EC50 was 1900 nM on human FPR1 and 120 nM on human FPR2.

On to `COc1cc(F)c(-n2cc(C(=O)N3CCNC(=O)C3)nc2NC(=O)c2ccc(OC(F)F)cc2)c(F)c1` [Example 58, N-[1-(2,6-Difluoro-4-methoxyphenyl)-4-(3-oxopiperazine-1-carbonyl)-1H-imidazol-2-yl]-4-(difluoromethoxy)benzamide], for which the EC50 stood at 3400 nM on human FPR1 and 170 nM at human FPR2.

In the case of `COc1cc(F)c(-n2cc(C(=O)N3CCC(CO)C3)nc2NC(=O)c2ccc(OC(F)F)cc2)c(F)c1` (stereo not drawn) [Example 59, N-[1-(2,6-Difluoro-4-methoxyphenyl)-4-[3-(hydroxymethyl)pyrrolidine-1-carbonyl]-1H-imidazol-2-yl]-4-(difluoromethoxy)benzamide], the EC50 at human FPR1 was found to be 2200 nM; on human FPR2, 82 nM.

For `COc1cc(F)c(-n2cc(C(=O)NCCCO)nc2NC(=O)c2ccc(OC(F)F)cc2)c(F)c1` [Example 60, 1-(2,6-Difluoro-4-methoxyphenyl)-2-[4-(difluoromethoxy)benzamido]-N-(3-hydroxypropyl)-1H-imidazole-4-carboxamide], the results for the half-maximal effective concentration (EC50) at human FPR1 and on human FPR2 were 1400 nM and 56 nM, respectively.

As to `COc1cc(F)c(-n2cc(C(=O)N3CCNCC3)nc2NC(=O)c2ccc(OC(F)F)cc2)c(F)c1` [Example 61, N-[1-(2,6-Difluoro-4-methoxyphenyl)-4-(piperazine-1-carbonyl)-1H-imidazol-2-yl]-4-(difluoromethoxy)benzamide], the EC50 at human FPR1 was > 10000 nM; on human FPR2, 130 nM.

With `COc1cc(F)c(-n2cc(C(=O)Nc3cn[nH]c3)nc2NC(=O)c2ccc(OC(F)F)cc2)c(F)c1` [Example 62, 1-(2,6-Difluoro-4-methoxyphenyl)-2-[4-(difluoromethoxy)benzamido]-N-(1H-pyrazol-4-yl)-1H-imidazole-4-carboxamide], the EC50 on human FPR1 was 830 nM; on human FPR2 it was 32 nM.

As for `COc1cc(F)c(-n2cc(C3CCNCC3)nc2NC(=O)c2ccc(OC(F)F)cc2)c(F)c1` [Example 63, N-[1-(2,6-Difluoro-4-methoxyphenyl)-4-(piperidin-4-yl)-1H-imidazol-2-yl]-4-(difluoromethoxy)benzamide], the EC50 on human FPR1 amounted to 710 nM; on human FPR2 it was 10 nM.

In the case of `COc1ccc(-n2cc(C3CCCNC3)nc2NC(=O)c2ccc(OC(F)F)cc2)cc1` (stereo not drawn) [Example 64, 4-(Difluoromethoxy)-N-[1-(4-methoxyphenyl)-4-(piperidin-3-yl)-1H-imidazol-2-yl]benzamide], the EC50 at human FPR1 came to 210 nM; on human FPR2 it was 11 nM.

For `CCS(=O)(=O)N1CCC(c2cn(-c3c(F)cc(OC)cc3F)c(NC(=O)c3ccc(OC(F)F)cc3)n2)CC1` [Example 65, N-[1-(2,6-Difluoro-4-methoxyphenyl)-4-[1-(ethanesulfonyl)piperidin-4-yl]-1H-imidazol-2-yl]-4-(difluoromethoxy)benzamide], the EC50 came out at 320 nM on human FPR1 and 81 nM on human FPR2.
